Data reported in ChEMBL document CHEMBL3627688, “Structure-based hybridization, synthesis and biological evaluation of novel tetracyclic heterocyclic azathioxanthone analogues as potential antitumor agents” (Eur J Med Chem, 2015).

Key:
SK-MEL-28 = assay: Growth inhibition of human SK-MEL-28 cells assessed as cell growth at 10 uM incubated for 48 hrs by sulforhodamine B assay; type: functional; details: SK-MEL-28, 48 h, read-out: Activity
SK-MEL-2 = assay: Growth inhibition of human SK-MEL-2 cells assessed as cell growth at 10 uM incubated for 48 hrs by sulforhodamine B assay; type: functional; details: SK-MEL-2, 48 h, read-out: Activity
MDA-MB-435 = assay: Growth inhibition of human MDA-MB-435 cells assessed as cell growth at 10 uM incubated for 48 hrs by sulforhodamine B assay; type: functional; details: MDA-MB-435, 48 h, read-out: Activity
M14 = assay: Growth inhibition of human M14 cells assessed as cell growth at 10 uM incubated for 48 hrs by sulforhodamine B assay; type: functional; details: M14, 48 h, read-out: Activity
Malme-3M = assay: Growth inhibition of human MALME-3M cells assessed as cell growth at 10 uM incubated for 48 hrs by sulforhodamine B assay; type: functional; details: read-out: Activity
[1] = Growth inhibition of human LOXIMVI cells assessed as cell growth at 10 uM incubated for 48 hrs by sulforhodamine B assay; type: functional; details: LOX IMVI, read-out: Activity
SNB-75 = assay: Growth inhibition of human SNB75 cells assessed as cell growth at 10 uM incubated for 48 hrs by sulforhodamine B assay; type: functional; details: SNB-75, 48 h, read-out: Activity
SNB-19 = assay: Growth inhibition of human SNB19 cells assessed as cell growth at 10 uM incubated for 48 hrs by sulforhodamine B assay; type: functional; details: SNB-19, 48 h, read-out: Activity
[2] = Growth inhibition of human SF539 cells assessed as cell growth at 10 uM incubated for 48 hrs by sulforhodamine B assay; type: functional; details: SF-539, 48 h, read-out: Activity
SF-268 = assay: Growth inhibition of human SF268 cells assessed as cell growth at 10 uM incubated for 48 hrs by sulforhodamine B assay; type: functional; details: SF-268, 48 h, read-out: Activity
SW-620 = assay: Growth inhibition of human SW620 cells assessed as cell growth at 10 uM incubated for 48 hrs by sulforhodamine B assay; type: functional; details: SW-620, 48 h, read-out: Activity
KM12 = assay: Growth inhibition of human KM12 cells assessed as cell growth at 10 uM incubated for 48 hrs by sulforhodamine B assay; type: functional; details: KM12, 48 h, read-out: Activity
HCT-116 = assay: Growth inhibition of human HCT116 cells assessed as cell growth at 10 uM incubated for 48 hrs by sulforhodamine B assay; type: functional; details: HCT-116, 48 h, read-out: Activity
[3] = Growth inhibition of human COLO205 cells assessed as cell growth at 10 uM incubated for 48 hrs by sulforhodamine B assay; type: functional; details: COLO 205, 48 h, read-out: Activity
NCI-H460 = assay: Growth inhibition of human NCI-H460 cells assessed as cell growth at 10 uM incubated for 48 hrs by sulforhodamine B assay; type: functional; details: NCI-H460, 48 h, read-out: Activity
NCI-H23 = assay: Growth inhibition of human NCI-H23 cells assessed as cell growth at 10 uM incubated for 48 hrs by sulforhodamine B assay; type: functional; details: NCI-H23, 48 h, read-out: Activity
[4] = Growth inhibition of human HOP92 cells assessed as cell growth at 10 uM incubated for 48 hrs by sulforhodamine B assay; type: functional; details: HOP-92, 48 h, read-out: Activity
A549 = assay: Growth inhibition of human A549/ATCC cells assessed as cell growth at 10 uM incubated for 48 hrs by sulforhodamine B assay; type: functional; details: A549, 48 h, read-out: Activity
SR = assay: Growth inhibition of human SR cells assessed as cell growth at 10 uM incubated for 48 hrs by sulforhodamine B assay; type: functional; details: read-out: Activity
[5] = Growth inhibition of human MOLT4 cells assessed as cell growth at 10 uM incubated for 48 hrs by sulforhodamine B assay; type: functional; details: MOLT-4, 48 h, read-out: Activity
CCRF-CEM = assay: Growth inhibition of human CCRF-CEM cells assessed as cell growth at 10 uM incubated for 48 hrs by sulforhodamine B assay; type: functional; details: read-out: Activity
UACC-257 = assay: Growth inhibition of human UACC257 cells assessed as cell growth at 10 uM incubated for 48 hrs by sulforhodamine B assay; type: functional; details: UACC-257, 48 h, read-out: Activity
UACC-62 = assay: Growth inhibition of human UACC62 cells assessed as cell growth at 10 uM incubated for 48 hrs by sulforhodamine B assay; type: functional; details: UACC-62, 48 h, read-out: Activity
OVCAR-5 = assay: Growth inhibition of human OVCAR5 cells assessed as cell growth at 10 uM incubated for 48 hrs by sulforhodamine B assay; type: functional; details: OVCAR-5, 48 h, read-out: Activity
[6] = Growth inhibition of human NCI-ADR-RES cells assessed as cell growth at 10 uM incubated for 48 hrs by sulforhodamine B assay; type: functional; details: read-out: Activity
ACHN = assay: Growth inhibition of human ACHN cells assessed as cell growth at 10 uM incubated for 48 hrs by sulforhodamine B assay; type: functional; details: read-out: Activity
CAKI-1 = assay: Growth inhibition of human Caki1 cells assessed as cell growth at 10 uM incubated for 48 hrs by sulforhodamine B assay; type: functional; details: CAKI-1, 48 h, read-out: Activity
[7] = Growth inhibition of human RXF393 cells assessed as cell growth at 10 uM incubated for 48 hrs by sulforhodamine B assay; type: functional; details: RXF 393, 48 h, read-out: Activity
UO-31 = assay: Growth inhibition of human UO31 cells assessed as cell growth at 10 uM incubated for 48 hrs by sulforhodamine B assay; type: functional; details: UO-31, 48 h, read-out: Activity
PC-3 [8] = assay: Growth inhibition of human PC3 cells assessed as cell growth at 10 uM incubated for 48 hrs by sulforhodamine B assay; type: functional; details: PC-3, 48 h, read-out: Activity
DU-145 = assay: Growth inhibition of human DU145 cells assessed as cell growth at 10 uM incubated for 48 hrs by sulforhodamine B assay; type: functional; details: DU-145, 48 h, read-out: Activity
MDA-MB-231 = assay: Growth inhibition of human MDA-MB-231/ATCC cells assessed as cell growth at 10 uM incubated for 48 hrs by sulforhodamine B assay; type: functional; details: MDA-MB-231, 48 h, read-out: Activity
[9] = Growth inhibition of human Hs 578T cells assessed as cell growth at 10 uM incubated for 48 hrs by sulforhodamine B assay; type: functional; details: read-out: Activity
[10] = Growth inhibition of human BT549 cells assessed as cell growth at 10 uM incubated for 48 hrs by sulforhodamine B assay; type: functional; details: BT-549, 48 h, read-out: Activity
[11] = Growth inhibition of human NCI60 cells assessed as cell growth at 10 uM incubated for 48 hrs by sulforhodamine B assay; type: functional; details: NCI60, 48 h, read-out: Activity
PC-3 [12] = assay: Antiproliferative activity against human PC3 cells assessed as cell viability incubated for 72 hrs by MTT assay; type: functional, cell-based; details: PC-3, 72 h

SMILES | growth at 10 µM (SK-MEL-28) | growth at 10 µM (SK-MEL-2) | growth at 10 µM (MDA-MB-435) | growth at 10 µM (M14) | growth at 10 µM (Malme-3M) | growth at 10 µM [1] | growth at 10 µM (SNB-75) | growth at 10 µM (SNB-19) | growth at 10 µM [2] | growth at 10 µM (SF-268) | growth at 10 µM (SW-620) | growth at 10 µM (KM12) | growth at 10 µM (HCT-116) | growth at 10 µM [3] | growth at 10 µM (NCI-H460) | growth at 10 µM (NCI-H23) | growth at 10 µM [4] | growth at 10 µM (A549) | growth at 10 µM (SR) | growth at 10 µM [5] | further results
O=c1c2ccc(Cl)cc2sc2c(Cl)nc3ccccc3c12 | 102% | 95.5% | 101% | 106% | 95.9% | 90.5% | 77.9% | 108% | 89% | 110% | 99.1% | 111% | 102% | 112% | 103% | 85.1% | 90.8% | 105% | 89% | 98% | growth at 10 µM (CCRF-CEM): 93.1%; growth at 10 µM (UACC-257): 104%; growth at 10 µM (UACC-62): 89.7%; growth at 10 µM (OVCAR-5): 100%; growth at 10 µM [6]: 103%; growth at 10 µM (ACHN): 86.8%; growth at 10 µM (CAKI-1): 94.3%; growth at 10 µM [7]: 103%; growth at 10 µM (UO-31): 66.1%; growth at 10 µM (PC-3 [8]): 91.6%; growth at 10 µM (DU-145): 114%; growth at 10 µM (MDA-MB-231): 84.3%; growth at 10 µM [9]: 95.1%; growth at 10 µM [10]: 110%; growth at 10 µM [11]: 98.1%; IC50 (PC-3 [12]): > 15 µM
O=C(O)c1c(Sc2ccc(Cl)cc2)c(O)nc2ccccc12 | 99% | 120% | 102% | 107% | 107% | 90.5% | 82.2% | 97.2% | 110% | 114% | 96.9% | 113% | 104% | 109% | 104% | 92.6% | 73% | 107% | 106% | 97.2% | growth at 10 µM (CCRF-CEM): 98.3%; growth at 10 µM (UACC-257): 122%; growth at 10 µM (UACC-62): 102%; growth at 10 µM (OVCAR-5): 112%; growth at 10 µM [6]: 97.8%; growth at 10 µM (ACHN): 113%; growth at 10 µM (CAKI-1): 76.3%; growth at 10 µM [7]: 114%; growth at 10 µM (UO-31): 68.9%; growth at 10 µM (PC-3 [8]): 93.2%; growth at 10 µM (DU-145): 115%; growth at 10 µM (MDA-MB-231): 95.7%; growth at 10 µM [9]: 88.3%; growth at 10 µM [10]: 124%; growth at 10 µM [11]: 102%; IC50 (PC-3 [12]): > 15 µM
